From PubChem BioAssay AID1259411 (Chemical Carcinogenesis Research Information System (CCRIS), 2018)
Calls of active or inactive are those of the source. No rule for the calls is given here.

Test system: rodent carcinogenicity bioassays, tumor incidence
Assay: CCRIS carcinogenicity studies
Summary of the method: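 Archive of carcinogenicity, mutagenicity, tumor promotion and tumor inhibition results drawn from journals, NCI reports and other sources, expert-reviewed; covers 1985-2011 and is no longer updated.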

## O=NN1CCOCC1
Species: FISH, Route: ORAL, Tumor Site: Type of Lesion: LIVER
  carcinogen call: active; positive
Species: HAMSTER, Route: ORAL, Tumor Site: Type of Lesion: LIVER
  carcinogen call: active; positive
Species: HAMSTER, Route: SUBCUTANEOUS, Tumor Site: Type of Lesion: TRACHEA, NASAL CAVITY
  carcinogen call: active; positive
Species: HAMSTER, Strain/Sex: SYRIAN/MALE, Route: INHALATION, Dose: 0, 14.4 MG/M3 4 HR/D 4-5 D/WK FOR 5 WK FOR A DAILY DOSE OF 0, 1.8 MG/KG (STUDY DURATION: 91 WK), Dose: 0, 14.4 MG/M3 4 HR/D 4-5 D/WK FOR 5 WK FOR A DAILY DOSE OF 0, 1.8 MG/KG (STUDY DURATION: 91 WK), Tumor Site: Type of Lesion: LIVER: HEPATOCELLULAR CARCINOMA OR HEMANGIOENDOTHELIOMA OR CARCINOMA, FORESTOMACH: PAPILLOMA, TRACHEA: PAPILLOMA, Tumor Site: Type of Lesion: LIVER: HEPATOCELLULAR CARCINOMA OR HEMANGIOENDOTHELIOMA OR CARCINOMA, FORESTOMACH: PAPILLOMA, TRACHEA: PAPILLOMA
  carcinogen call: active; positive
Species: HAMSTER, Strain/Sex: SYRIAN/MALE, Route: INTRAGASTRIC, Dose: 0, 26 MG/ML IN 0.2 ML STERILIZED WATER 1/WK FOR 26 WK (TOTAL DOSE 135 MG) (STUDY DURATION: LIFESPAN), Tumor Site: Type of Lesion: NASAL CAVITY: CARCINOMA, TRACHEA: ADENOMA
  carcinogen call: active; positive
Species: MOUSE, Route: ORAL, Tumor Site: Type of Lesion: LIVER, LUNG
  carcinogen call: active; positive
Species: MOUSE, Strain/Sex: STRAIN-A/FEMALE, Route: ORAL, Dose: 0, 0.2 UMOL/ML IN DRINKING WATER FOR 10 WK (TOTAL DOSE: 0, 54 UMOL) FOLLOWED BY TAP WATER FOR 20 WK (STUDY DURATION: 30, Tumor Site: Type of Lesion: LUNG: TUMORS
  carcinogen call: active; positive
Species: RAT, Route: ORAL, Tumor Site: Type of Lesion: KIDNEY, LIVER
  carcinogen call: active; positive
Species: RAT, Strain/Sex: F344/FEMALE, Route: GAVAGE, Dose: 0, 10 MG/WK FOR A TOTAL DOSE OF 1.9 MMOL (STUDY DYRATION: 30 WK), Tumor Site: Type of Lesion: ESOPHAGUS: TUMOR, LIVER: TUMOR, THYROID: TUMOR, Tumor Site: Type of Lesion: ESOPHAGUS: TUMOR, LIVER: TUMOR, THYROID: TUMOR
  carcinogen call: active; positive
Species: RAT, Strain/Sex: F344/FEMALE, Route: INTRAVESICULAR, Dose: 0, 5 MG IN 0.2 ML ETHANOL: DEIONIZED WATER (1:3) 2/WK FOR 30 WK (TOTAL DOSE 2.6 MMOL) (STUDY DURATION: LIFESPAN), Tumor Site: Type of Lesion: LIVER: TUMOR, NASAL MUCOSA: TUMOR, ESOPHAGUS: TUMOR, Tumor Site: Type of Lesion: LIVER: TUMOR, NASAL MUCOSA: TUMOR, ESOPHAGUS: TUMOR
  carcinogen call: active; positive
Species: RAT, Strain/Sex: F344/FEMALE, Route: ORAL, Dose: 0, 26.5 MG/L IN DRINKING WATER 5 D/WK FOR 50 WK (TOTAL DOSE: 0; 1.1 MMOL) (STUDY DURATION: 124 WK), Dose: 0, 26.5 MG/L IN DRINKING WATER 5 D/WK FOR 50 WK (TOTAL DOSE: 0; 1.1 MMOL) (STUDY DURATION: 124 WK), Tumor Site: Type of Lesion: LIVER: HEPATOCELLULAR TUMOR, HEMANGIOSARCOMA
  carcinogen call: active; positive
Species: RAT, Strain/Sex: F344/FEMALE, Route: ORAL, Dose: 40 MG/L IN DRINKING WATER FOR 50 WK, Tumor Site: Type of Lesion: LIVER: HEPATOCELLULAR CARCINOMA, HEMANGIOENDOTHELIAL SARCOMA, ESOPHAGUS: PAPILLOMA, CARCINOMA
  carcinogen call: active; positive
Species: RAT, Strain/Sex: F344/MALE, Route: ORAL, Dose: 0, 0.02% IN DRINKING WATER FOR 8 WK (STUDY DURATION: 20 WK), Tumor Site: Type of Lesion: LIVER: HEPATOCELLULAR CARCINOMA
  carcinogen call: active; positive
Species: RAT, Strain/Sex: F344/MALE, Route: ORAL, Dose: 16, 40 MG/L IN DRINKING WATER FOR 50 WK, Tumor Site: Type of Lesion: LIVER: HEPATOCELLULAR CARCINOMA, HEMANGIOENDOTHELIAL SARCOMA, ESOPHAGUS: PAPILLOMA
  carcinogen call: active; positive
Species: RAT, Strain/Sex: SD/G/MALE, Route: ORAL, Dose: 0, 0.02% IN DRINKING WATER FOR 8 WK (STUDY DURATION: 20 WK)
  carcinogen call: inactive; negative
Species: RAT, Strain/Sex: SPRAGUE-DAWLEY/FEMALE, Route: INHALATION, Dose: 0, 7.7 MG/M3 4 HR/D 4-5 D/WK FOR 6 WK FOR A DAILY DOSE OF 0, 0.5 MG/KG (STUDY DURATION: 124 WK), Dose: 0, 7.7 MG/M3 4 HR/D 4-5 D/WK FOR 6 WK FOR A DAILY DOSE OF 0, 0.5 MG/KG (STUDY DURATION: 124 WK), Tumor Site: Type of Lesion: LIVER: HEPATOCELLULAR CARCINOMA, NEOPLASTIC NODULE
  carcinogen call: active; positive
Species: RAT, Strain/Sex: WS/MALE, Route: ORAL, Dose: 0, 0.02% IN DRINKING WATER FOR 8 WK (STUDY DURATION: 20 WK), Tumor Site: Type of Lesion: LIVER: HEPATOCELLULAR CARCINOMA
  carcinogen call: active; positive

## Nc1cccc2c(N)cccc12
Species: MOUSE, Strain/Sex: B6C3F1/FEMALE, Route: ORAL, Dose: 0, 0.1, 0.2% IN DIET FOR 103 WK (STUDY DURATION: 105-109 WK), Dose: 0, 0.1, 0.2% IN DIET FOR 103 WK (STUDY DURATION: 105-109 WK), Tumor Site: Type of Lesion: LUNG: ALVEOLAR/BRONCHIOLAR ADENOMA OR CARCINOMA, LIVER: HEPATOCELLULAR CARCINOMA, HEPATOCELLULAR ADENOMA OR CARCINOMA, T, Tumor Site: Type of Lesion: LUNG: ALVEOLAR/BRONCHIOLAR ADENOMA OR CARCINOMA, LIVER: HEPATOCELLULAR CARCINOMA, HEPATOCELLULAR ADENOMA OR CARCINOMA, T
  carcinogen call: active; positive
Species: MOUSE, Strain/Sex: B6C3F1/MALE, Route: ORAL, Dose: 0, 0.1, 0.2% IN DIET FOR 103 WK (STUDY DURATION: 105-109 WK), Dose: 0, 0.1, 0.2% IN DIET FOR 103 WK (STUDY DURATION: 105-109 WK), Tumor Site: Type of Lesion: THYROID GLAND: PAPILLARY ADENOMA OR FOLLICULAR CELL ADENOMA OR PAPILLARY CYSTADENOMA (NOS)
  carcinogen call: active; positive
Species: RAT, Strain/Sex: F344/FEMALE, Route: ORAL, Dose: 0, 0.05, 0.1% IN DIET FOR 103 WK (STUDY DURATION: 106-110 WK), Dose: 0, 0.05, 0.1% IN DIET FOR 103 WK (STUDY DURATION: 106-110 WK), Tumor Site: Type of Lesion: CLITORAL GLAND: ADENOMA (NOS) OR CARCINOMA (NOS), UTERUS: ENDOMETRIAL STROMAL POLYP
  carcinogen call: active; positive
Species: RAT, Strain/Sex: F344/MALE, Route: ORAL, Dose: 0, 0.05, 0.1% IN DIET FOR 103 WK (STUDY DURATION: 106-109 WK), Dose: 0, 0.05, 0.1% IN DIET FOR 103 WK (STUDY DURATION: 106-109 WK)
  carcinogen call: inactive; negative

## O[C@@H]1C=Cc2c(ccc3cc4ccc5ccccc5c4nc23)[C@H]1O
Species: MOUSE, Strain/Sex: CD-1/FEMALE, Route: INTRAPERITONEAL, Dose: 0, 175 NMOL (TOTAL DOSE) ADMINISTERED AS 1/7 OF DOSE WITHIN 24 HR AFTER BIRTH, 2/7 OF DOSE AT 8 D OLD, 4/7 OF DOSE AT 15, Tumor Site: Type of Lesion: LUNG: TUMOR
  carcinogen call: active; positive
Species: MOUSE, Strain/Sex: CD-1/MALE, Route: INTRAPERITONEAL, Dose: 0, 175 NMOL (TOTAL DOSE) ADMINISTERED AS 1/7 OF DOSE WITHIN 24 HR AFTER BIRTH, 2/7 OF DOSE AT 8 D OLD, 4/7 OF DOSE AT 15, Tumor Site: Type of Lesion: LIVER: TUMOR, LUNG: TUMOR
  carcinogen call: active; positive

## Cn1c([N+](=O)[O-])cnc1C1=NOC2CCCCC12 (stereo not drawn)
Species: MOUSE, Strain/Sex: SWISS/FEMALE, Route: INTRAPERITONEAL, Dose: 0, 80 UG/G BW 1/D FOR 30 DAYS (STUDY DURATION: LIFETIME), Tumor Site: Type of Lesion: LYMPHATIC SYSTEM: LYMPHOMA
  carcinogen call: active; positive

## O=C(O)COc1ccc(Cl)cc1Cl
Species: MOUSE, Strain/Sex: B6C3F1/FEMALE, Route: ORAL, Dose: 0, 5, 150, 300 MG/KG BW DAILY FOR 2 YR (STUDY DURATION: 2 YR), Dose: 0, 5, 150, 300 MG/KG BW DAILY FOR 2 YR (STUDY DURATION: 2 YR)
  carcinogen call: inactive; negative
Species: MOUSE, Strain/Sex: B6C3F1/MALE, Route: ORAL, Dose: 0, 5, 62.5, 125 MG/KG BW DAILY FOR 2 YR (STUDY DURATION: 2 YR), Dose: 0, 5, 62.5, 125 MG/KG BW DAILY FOR 2 YR (STUDY DURATION: 2 YR)
  carcinogen call: inactive; negative
Species: RAT, Strain/Sex: F344/FEMALE, Route: ORAL, Dose: 0, 5, 75, 150 MG/KG BW DAILY FOR 2 YR (STUDY DURATION: 2 YR), Dose: 0, 5, 75, 150 MG/KG BW DAILY FOR 2 YR (STUDY DURATION: 2 YR)
  carcinogen call: inactive; negative
Species: RAT, Strain/Sex: F344/MALE, Route: ORAL, Dose: 0, 5, 75, 150 MG/KG BW DAILY FOR 2 YR (STUDY DURATION: 2 YR), Dose: 0, 5, 75, 150 MG/KG BW DAILY FOR 2 YR (STUDY DURATION: 2 YR)
  carcinogen call: inactive; negative
